# In patent publication US10131702B2, “Glucagon-GLP-1-GIP triple agonist compounds” (priority 2013, dated 2018):
# Where two headings read alike, the source gives them in different places. Numbered stars: 1 amine (or outer) side, 2 acyl side, 3 side chain; on linkers, the order of the positions; unused ones are H or OH. Square brackets hold non-standard residues; d marks the D form. Side chains are listed from the residue outwards. Peptide text beside a SMILES is read from it. * marks the point of attachment. γGlu = O=C(O)[C@H](CCC(=O)[*:2])N[*:1]; Stearoyl = CCCCCCCCCCCCCCCCCC(=O)*; AEEA = NCCOCCOCC(=O)O; Aib = CC(C)(N)C(=O)O
# Key:
# Format in all cases: cell-based
# human GLP-1 R = biological target: T1, human GLP-1 R (Homo sapiens, UniProt P43220); test: cAMP induction in HEK293 cells expressing human GLP-1 R (AlphaScreen cAMP kit)
# T1 construct: expressed in transfected cells
# T1 sequence (P43220 24-463): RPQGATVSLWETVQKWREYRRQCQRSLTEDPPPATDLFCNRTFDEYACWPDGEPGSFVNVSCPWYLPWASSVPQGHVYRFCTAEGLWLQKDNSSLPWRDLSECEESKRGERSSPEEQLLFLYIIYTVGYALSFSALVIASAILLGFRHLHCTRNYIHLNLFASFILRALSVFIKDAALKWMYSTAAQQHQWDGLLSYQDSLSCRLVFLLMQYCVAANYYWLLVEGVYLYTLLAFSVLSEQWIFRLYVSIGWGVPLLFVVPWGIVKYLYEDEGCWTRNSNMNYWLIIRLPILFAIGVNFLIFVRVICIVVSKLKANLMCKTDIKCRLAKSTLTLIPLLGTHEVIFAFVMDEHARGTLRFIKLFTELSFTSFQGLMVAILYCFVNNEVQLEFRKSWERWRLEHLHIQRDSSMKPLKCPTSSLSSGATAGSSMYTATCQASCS
# human GCG R = biological target: T2, human GCG R (Homo sapiens, UniProt P47871); test: cAMP induction in HEK293 cells expressing human GCG R (AlphaScreen cAMP kit)
# T2 construct: expressed in transfected cells
# T2 sequence (P47871 26-477): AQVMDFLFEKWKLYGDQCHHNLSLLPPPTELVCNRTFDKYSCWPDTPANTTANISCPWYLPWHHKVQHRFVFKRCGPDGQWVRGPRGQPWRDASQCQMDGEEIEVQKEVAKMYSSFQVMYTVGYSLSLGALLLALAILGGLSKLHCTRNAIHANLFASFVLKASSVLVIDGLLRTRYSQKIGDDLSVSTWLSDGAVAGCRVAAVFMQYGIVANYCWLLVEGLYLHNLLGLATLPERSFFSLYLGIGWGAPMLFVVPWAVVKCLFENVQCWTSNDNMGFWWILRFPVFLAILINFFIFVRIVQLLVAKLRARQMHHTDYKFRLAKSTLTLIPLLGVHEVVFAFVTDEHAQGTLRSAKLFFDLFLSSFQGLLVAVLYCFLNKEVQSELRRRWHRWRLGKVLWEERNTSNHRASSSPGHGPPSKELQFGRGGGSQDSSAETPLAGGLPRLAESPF
# human GIP R = biological target: T3, human GIP R (Homo sapiens, UniProt P48546); test: cAMP induction in HEK293 cells expressing human GIP R (AlphaScreen cAMP kit)
# T3 construct: expressed in transfected cells
# T3 sequence (P48546 22-466): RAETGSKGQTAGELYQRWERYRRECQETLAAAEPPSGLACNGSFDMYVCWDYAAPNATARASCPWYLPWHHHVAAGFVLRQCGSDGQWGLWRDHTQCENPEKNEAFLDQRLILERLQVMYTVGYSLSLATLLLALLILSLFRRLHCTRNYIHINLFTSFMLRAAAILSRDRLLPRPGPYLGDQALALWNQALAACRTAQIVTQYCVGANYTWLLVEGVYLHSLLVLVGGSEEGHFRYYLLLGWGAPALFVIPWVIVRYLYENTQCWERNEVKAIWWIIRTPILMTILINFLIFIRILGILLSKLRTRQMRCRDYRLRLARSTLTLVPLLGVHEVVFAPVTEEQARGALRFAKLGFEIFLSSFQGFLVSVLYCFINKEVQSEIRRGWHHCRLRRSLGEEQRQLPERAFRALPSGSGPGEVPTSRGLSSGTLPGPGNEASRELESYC
# [1] = Table 2b (most comprehensive data), average EC50, cAMP, HEK293 cells expressing human GLP-1 R, read-out: GLP1 R (EC50 in nM)
# [2] = Table 2b (most comprehensive data), average EC50, cAMP, read-out: GIP R (EC50 in nM)
# [3] = Table 2, average EC50, cAMP, HEK293 cells expressing human GLP-1 R, read-out: GLP1 R (EC50 in nM)
# [4] = GIP R (EC50 in nM), Table 2, average EC50, cAMP
# [5] = GIP R (EC50 in nM), Table 2b (most comprehensive data), average EC50, cAMP
"EC50 (human GCG R; Table 2b (most comprehensive data), average EC50, cAMP, HEK293 cells expressing human GCG R, read-out: GCG R (EC50 in nM)) [nM]",SMILES,EC50 (human GLP-1 R; [1]) [nM],EC50 (human GIP R; [2]) [nM],EC50 (human GLP-1 R; [3]) [nM],EC50 (human GCG R) [nM],EC50 (human GIP R; [4]) [nM],EC50 (human GIP R; [5]) [nM],EC50 (human GLP-1 R) [nM],"EC50 (human GCG R; Table 2, average EC50, cAMP, HEK293 cells expressing human GCG R, read-out: GCG R (EC50 in nM)) [nM]","EC50 (human GIP R; Table 2, average EC50, cAMP, read-out: GIP R (EC50 in nM)) [nM]"
0.19,CCCCCCCCCCCCCCCCCC(=O)N[C@@H](CCC(=O)NCCOCCOCC(=O)NCCOCCOCC(=O)NCCCC[C@H](NC(=O)[C@H](CCCCN)NC(=O)[C@H](CCC(=O)O)NC(=O)[C@H](CC(C)C)NC(=O)[C@H](C)NC(=O)[C@@H](NC(=O)[C@H](CO)NC(=O)[C@H](CC(C)C)NC(=O)[C@H](CC(=O)O)NC(=O)[C@H](CO)NC(=O)[C@@H](NC(=O)[C@H](Cc1ccccc1)NC(=O)[C@@H](NC(=O)CNC(=O)[C@H](CCC(N)=O)NC(=O)C(C)(C)NC(=O)[C@@H](N)Cc1ccc(O)cc1)[C@@H](C)O)[C@@H](C)O)[C@@H](C)CC)C(=O)N[C@@H](C)C(=O)N[C@@H](CCC(N)=O)C(=O)N[C@@H](CCCNC(=N)N)C(=O)N[C@@H](C)C(=O)N[C@@H](Cc1ccccc1)C(=O)N[C@H](C(=O)N[C@@H](CCC(=O)O)C(=O)N[C@@H](Cc1c[nH]c2ccccc12)C(=O)N[C@@H](CC(C)C)C(=O)N[C@@H](CC(C)C)C(=O)N[C@@H](C)C(=O)N[C@@H](CCC(N)=O)C(=O)N[C@@H](CCCCN)C(N)=O)C(C)C)C(=O)O [Compound 48] (H-Y[Aib]QGTFTSDLSIALEKK([AEEA-AEEA-γGlu-Stearoyl])AQRAFVEWLLAQK-NH2),0.013,0.013,,,,,,,
,CC[C@H](C)[C@H](NC(=O)[C@H](CO)NC(=O)[C@H](Cc1ccc(O)cc1)NC(=O)[C@H](CC(=O)O)NC(=O)[C@H](CO)NC(=O)[C@@H](NC(=O)[C@H](Cc1ccccc1)NC(=O)[C@@H](NC(=O)CNC(=O)[C@H](CCC(N)=O)NC(=O)C(C)(C)NC(=O)[C@@H](N)Cc1ccc(O)cc1)[C@@H](C)O)[C@@H](C)O)C(=O)N[C@@H](Cc1ccc(O)cc1)C(=O)N[C@@H](CC(C)C)C(=O)N[C@@H](CC(=O)O)C(=O)N[C@@H](CCCCN)C(=O)N[C@@H](CCCCN)C(=O)N[C@@H](C)C(=O)N[C@@H](C)C(=O)N[C@@H](Cc1c[nH]cn1)C(=O)N[C@@H](CC(=O)O)C(=O)N[C@@H](Cc1ccccc1)C(=O)N[C@H](C(=O)N[C@@H](CCC(=O)O)C(=O)N[C@@H](Cc1c[nH]c2ccccc12)C(=O)N[C@@H](CC(C)C)C(=O)N[C@@H](CC(C)C)C(=O)N[C@@H](CO)C(=O)N[C@@H](C)C(N)=O)C(C)C [Compound 19] (HELM PEPTIDE1{Y.[Aib].Q.G.T.F.T.S.D.Y.S.I.Y.L.D.K.K.A.A.H.D.F.V.E.W.L.L.S.A.[am]}$$$$V2.0),0.024,,0.013,0.024,0.032,0.013,,,
,CC(C)C[C@H](NC(=O)[C@H](CC(C)C)NC(=O)[C@H](Cc1c[nH]c2ccccc12)NC(=O)[C@H](CCC(=O)O)NC(=O)[C@@H](NC(=O)[C@H](Cc1ccccc1)NC(=O)[C@H](CC(=O)O)NC(=O)[C@H](Cc1c[nH]cn1)NC(=O)[C@H](C)NC(=O)[C@H](C)NC(=O)[C@H](CCCCN)NC(=O)[C@H](CO)NC(=O)[C@H](CC(=O)O)NC(=O)[C@H](CC(C)C)NC(=O)[C@H](Cc1ccc(O)cc1)NC(=O)[C@H](CCCCN)NC(=O)[C@H](CO)NC(=O)[C@H](Cc1ccc(O)cc1)NC(=O)[C@H](CC(=O)O)NC(=O)[C@H](CO)NC(=O)[C@@H](NC(=O)[C@H](Cc1ccccc1)NC(=O)[C@@H](NC(=O)CNC(=O)[C@H](CCC(N)=O)NC(=O)[C@H](CO)NC(=O)[C@@H](N)Cc1ccc(O)cc1)[C@@H](C)O)[C@@H](C)O)C(C)C)C(=O)N[C@@H](CCCNC(=N)N)C(=O)N[C@@H](C)C(N)=O [Compound 1] (H-YSQGTFTSDYSKYLDSKAAHDFVEWLLRA-NH2),0.013,,0.033,0.013,0.38,0.033,,,
,"CCCCCCCCCCCCCCCC(=O)N[C@@H](CCC(=O)NCCCC[C@H](NC(=O)[C@H](CO)NC(=O)[C@H](CC(=O)O)NC(=O)[C@H](CC(C)C)NC(=O)[C@H](Cc1ccc(O)cc1)NC(=O)[C@@H](NC(=O)[C@H](CO)NC(=O)[C@H](Cc1ccc(O)cc1)NC(=O)[C@H](CC(=O)O)NC(=O)[C@H](CO)NC(=O)[C@@H](NC(=O)[C@H](Cc1ccccc1)NC(=O)[C@@H](NC(=O)CNC(=O)[C@H](CCC(N)=O)NC(=O)C(C)(C)NC(=O)[C@@H](N)Cc1ccc(O)cc1)[C@@H](C)O)[C@@H](C)O)[C@@H](C)CC)C(=O)N[C@@H](C)C(=O)N[C@@H](C)C(=O)N[C@@H](Cc1c[nH]cn1)C(=O)N[C@@H](CC(=O)O)C(=O)N[C@@H](Cc1ccccc1)C(=O)N[C@H](C(=O)N[C@@H](CCC(=O)O)C(=O)N[C@@H](Cc1c[nH]c2ccccc12)C(=O)N[C@@H](CC(C)C)C(=O)N[C@@H](CC(C)C)C(=O)N[C@@H](CO)C(=O)N[C@@H](C)C(=O)NCC(=O)N1CCC[C@H]1C(=O)N[C@@H](CO)C(=O)N[C@@H](CO)C(=O)NCC(=O)N[C@@H](C)C(=O)N1CCC[C@H]1C(=O)N1CCC[C@H]1C(=O)N1CCC[C@H]1C(=O)N[C@@H](CO)C(N)=O)C(C)C)C(=O)O [Compound 29] (HELM PEPTIDE1{Y.[Aib].Q.G.T.F.T.S.D.Y.S.I.Y.L.D.S.K.A.A.H.D.F.V.E.W.L.L.S.A.G.P.S.S.G.A.P.P.P.S.[am]}|PEPTIDE2{[CCCCCCCCCCCCCCCC(=O)[*:2]].[gGlu]}$PEPTIDE1,PEPTIDE2,17:R3-2:R2$$$V2.0)",0.15,0.05,,,,,0.05,0.15,0.06
